Experimental data: patent US5064817A, “Phospholipase A2 inhibiting compositions and their use” (Yissum Research Development Company of Hebrew University of …, priority 1987, dated 1991)
“And” between values parts separate entries of the source, which are not always exact repeats. Equal values may be shown once.

How the values were obtained:
[1] = system: Prostaglandin (PGE2) production in mouse peritoneal macrophages; assay: Inhibition of PGE2 production in mouse peritoneal macrophages; format: cell-based; conditions: 10^-5 M phorbol-myristate-acetate, 2 hours, repeated lines per PLI type
Protocol: Peritoneal cells from NMRI mice were obtained by lavage with Dulbeccos MEM. The cells were washed and plated at 2×10^4 /well in Dulbeccos MEM with FCS in 96-well plates. After 2 hours (or overnight) incubation at 37°, the adherent macrophages were washed 3 times. The medium was replaced by Dulbeccos MEM with lactalbumin hydrolysate. Test compounds were suspended in water. One hour later, the macrophages were stimulated with 10^-5 M phorbol-myristate-acetate. Another 2 hours later, PGE2 and LTC4 were measured int he supernatants by radioimmunoassay. The results are expressed as IC50 of PGE2 - and LTC4 -production.

[2] = system: crude phospholipase A2 (extracted from human polymorphonuclear leukocytes); assay: Inhibition of phospholipase A2 from human PMN leukocytes (14C-oleate-labelled E. coli substrate); format: biochemical; conditions: 37°, 60 min, pH 7.0, 0.5 mmol/l CaCl2
Protocol: The reaction is stopped by extraction with modified Dole reagent. Free oleic acid is separated on a disposable silicic acid (Kieselgel G 100) column and the radioactivity is determined. Percent inhibition is calculated after subtracting a blank (assay mixture without enzyme).

[3] = system: human platelet aggregation; assay: Inhibition of human platelet aggregation in platelet-rich plasma; format: cell-based; conditions: human PRP
Protocol: (§1) Platelet-rich plasma (PRP) was obtained from human donors by centrifugation. Platelet aggregation at 37° C. and TXB2 secretion were induced by the addition of an aggregating agent (inducer) as indicated in the table below. Platelet aggregation was determined by measurement of the suspension optical density in a double beam aggregometer. Results are expressed as % of the control aggregation obtained by the addition of the inducer in the absence of an inhibitor. TXB2, secretion to the extracellular medium, was determined by radioimmunoassay. When the test PLI was applied, the PRP was incubated with the inhibitor for 10 min at 37° C., prior to induction of aggregation.

[4] = system: Thromboxane (TXB2) secretion by human platelets; assay: Inhibition of thromboxane (TXB2) secretion by human platelets; format: cell-based; conditions: human PRP
Protocol: as §1

[5] = system: PLA2-oedema (purified phospholipase A2 from porcine pancreas, subplantar); assay: Inhibition of PLA2-oedema in rats (paw plethysmometry); format: in vivo; conditions: rat
Protocol: By subplantar injection of 200 U PLA2 (ca. 0.3 mg purified phospholipase A2 from porcine pancreas, Boehringer Mannheim) in 100 μl physiological saline into the left hind paw of male or female rats (LEW/TIF, ca. 200 g body weight, 5 animals per group) a localized edema was induced and its intensity was determined plethysmometrically 3 and 5 hours later. Test compounds were suspended in 0.75% methylcellulose and administered i.p. (5 ml/kg) 1 hour prior to the PLA2 injection. The edema-inhibiting effect was expressed as percent inhibition in comparison to vehicle-treated controls.

[6] = system: prostacyclin (6-keto-PGF1 α) production in cultured adrenal capillary endothelial cells; assay: Inhibition of prostacyclin production in endothelial cells; format: cell-based; conditions: for % Inhibition of prostacyclin production: PLI 1 mg/ml + Bradykinin 1 μM; for 6-keto-PFG1α PROD.: PLI 1 mg/ml + Bradykinin 1 μM (Bradykinin alone 201.9 ± 21.6)
Protocol: Method: Cultured adrenal capillary endothelial cells were stimulated to produce prostacyclin (6-keto-PGF1 α) by bradykinin in the absence and presence of CMS or HME. The prostacyclin, secreted to the culture medium was determined by radioimmunoassay.

[7] = system: Phospholipase A2 (PLA2) activity in Rat Basophilic Leukemia (RBL) cells; assay: Inhibition of PLA2 activity in RBL cells (C6-NBD-PC hydrolysis); format: cell-based
Protocol: Cultured RBL cells were incubated with the fluorescent substrate of PLA2 (C6 -NBD-PC) as described by Yedgar et al. (1986) FEBS Letters, 200:165-168. After 1 hour of incubation, the cultures were subjected to lipid extraction and determination of C6 -NBD-PC hydrolysed as previously described.

[8] = system: Serotonin secretion in Rat Basophilic Leukemia (RBL) cells; assay: Inhibition of serotonin secretion in RBL cells; format: cell-based; conditions: HMS 1.5 mg/ml, ionophore A23187 0.3 μM
Protocol: Cultured RBL were incubated with tritiated serotonin (10^7 DPM/ml/10^6 cell) for 2 hours, then washed. Serotinin secretion was activated in the absence or presence of HMS (1.5 mg/ml) by the addition of the ionophore A23187 (0.3 μM) for the desired time. The radioactive serotonin accumulated in the culture medium during the activation period was determined. In the absence of HMS, approximately 1.3 and 1.9 DPM×10^5 was excreted in 15 and 30 minutes, respectively, whereas in the presence of the HMS, only about 0.3 DPM×10^5 was secreted in each of these time periods.

[9] = system: adjuvant arthritis (Freunds adjuvant paw swelling); assay: Adjuvant arthritis model of inflammation; format: in vivo, rat; conditions: for gross signs of toxicity: 70 mg/kg subcutaneously, two week dosing period; for paw diameter (measured with calipers): arthritic animals, by day 14; for paw diameter (measured with calipers) / decrease in paw swelling, injected paw / decrease in paw swelling, noninjected paw: 70 mg/kg subcutaneously day 3 to day 14; for decrease in paw swelling, injected paw / decrease in paw swelling, noninjected paw: arthritic rats, day 14
Protocol: Two compounds (CMS and HMS) were tested in the adjuvant arthritis model of inflammation. Paw swelling is induced by an injection of Freunds adjuvant into the right hind paw. Systemic inflammation spreads to the controlateral paw within 2 weeks. The compounds were administered subcutaneously from day 3 to day 14 at a dose of 70 mg/kg. […] CMS decreased noninjected paw swelling 51% (P≤0.005) and injected paw swelling 30% (P≤0.001). […] No drug treated group lost weight compared to the arthritic controls.

[10] = line (e), 1 × i.p., dose not given
[11] = 100 mg/kg i.p., 1 hour prior to PLA2
[12] = 1 × 20 mg/kg i.p., 1 hour prior to PLA2
[13] = Epinephrine 0.8 μg/ml, PLI 1.5 mg/ml

Dextranhydrazide-dodecanedioic-phosphatidylserine [Dex-Ac-PS, reference compound]
IC50 for PGE2 production [1]: 300 µg/mL and 600 µg/mL
Inhibition of PLA2 from human PMN, IC50 [2]: 720 µg/mL
Aggregation (% of control) ([3]; ADP 2 μg/ml, PLI 3.0 mg/ml): 14 % of control
Aggregation (% of control) ([3]; Epinephrine 0.8 μg/ml, PLI 6.5 mg/ml): 19 % of control

Hemaccellphosphatidylethanolamine [HME]
TXB2 secreted ([4]; ADP 2 μg/ml, PLI 0.70 mg/ml (without PLI 82 ± 4)): 14 ± 7 ng/mL
TXB2 secreted ([4]; Collagen 40 μg/ml, PLI 0.85 mg/ml (without PLI 42 ± 6)): 17 ± 7 ng/mL
% Inhibition of PLA2-oedema, 3 hours [5, 10]: 0%
% Inhibition of PLA2-oedema, 5 hours [5, 10]: 0%
% Inhibition of PLA2-oedema, 3 hours ([5]; line (f), i.p., dose not given): 27%
% Inhibition of PLA2-oedema, 5 hours ([5]; line (f), i.p., dose not given): 25%
% Inhibition of PLA2-oedema, 3 hours ([5]; line (g), i.p., dose not given): 53%
% Inhibition of PLA2-oedema, 5 hours ([5]; line (g), i.p., dose not given): 45%
% Inhibition of prostacyclin production [6]: 82%
6-keto-PFG1α PROD. [6]: 36.4 ± 7.2 PG/10^-6 Cells
Aggregation (% of control) ([3]; ADP 2 μg/ml, PLI 0.70 mg/ml): 6 % of control
Aggregation (% of control) ([3]; Collagen 40 μg/ml, PLI 0.85 mg/ml): 13 % of control
Aggregation (% of control) ([3]; Epinephrine 0.8 μg/ml, PLI 0.75 mg/ml): 9 % of control

Hemaccellphosphatidylserine [HMS]
C6-NBD-PC hydrolysed ([7]; HMS 0.5 mg/ml (control 1.42 ± 0.19)): 0.37 ± 0.04 nmole/mg cell protein-hour
C6-NBD-PC hydrolysed ([7]; HMS 1.5 mg/ml (control 1.42 ± 0.19)): 0.11 ± 0.07 nmole/mg cell protein-hour
radioactive serotonin secreted to culture medium ([8]; 15 minutes (without HMS approx. 1.3)): about 0.3 DPM×10^5
radioactive serotonin secreted to culture medium ([8]; 30 minutes (without HMS approx. 1.9)): about 0.3 DPM×10^5
% Inhibition of PLA2-oedema, 3 hours [5, 11]: 63%
% Inhibition of PLA2-oedema, 5 hours [5, 11]: 80%
% Inhibition of PLA2-oedema, 3 hours [5, 12]: 36%
% Inhibition of PLA2-oedema, 5 hours [5, 12]: 62%
IC50 for PGE2 production [1]: > 100 µg/mL
gross signs of toxicity [9]: no gross signs of toxicity
paw diameter (measured with calipers) [9]: significantly decreased
decrease in paw swelling, injected paw [9]: 19%
decrease in paw swelling, noninjected paw [9]: 43%
Inhibition of PLA2 from human PMN, IC50 [2]: 57 µg/mL
Aggregation (% of control) ([3]; Epinephrine 0.8 μg/ml, PLI 1.2 mg/ml): 2 % of control

alginic acid phosphatidylethanolamine [ALE]
Aggregation (% of control) ([3]; Epinephrine 0.8 μg/ml, PLI 0.7 mg/ml): 9 % of control

alginic acid phosphatidylserine [ALS]
Aggregation (% of control) [3, 13]: 5 % of control

carboxymethylcellulose phosphatidylethanolamine [CME]
Aggregation (% of control) [3, 13]: 0 % of control

carboxymethylcellulosephosphatidylserine [CMS]
% Inhibition of PLA2-oedema, 3 hours [5, 11]: 51%
% Inhibition of PLA2-oedema, 5 hours [5, 11]: 54%
% Inhibition of PLA2-oedema, 3 hours [5, 12]: 15%
% Inhibition of PLA2-oedema, 5 hours [5, 12]: 29%
IC50 for PGE2 production [1]: 100 µg/mL and > 100 µg/mL
% Inhibition of prostacyclin production [6]: 61%
6-keto-PFG1α PROD. [6]: 78.7 ± 6.8 PG/10^-6 Cells
gross signs of toxicity [9]: no gross signs of toxicity
paw diameter (measured with calipers) [9]: significantly decreased
decrease in paw swelling, injected paw [9]: 30%
decrease in paw swelling, noninjected paw [9]: 51%
Inhibition of PLA2 from human PMN, IC50 [2]: 40 µg/mL
Aggregation (% of control) [3, 13]: 0 % of control
